#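 Compound exposure: 48 hours, 5 concentrations, 96-well plates. Abbreviation: GI50, concentration required for 50% inhibition of growth. TGI denotes the concentration required for complete inhibition of growth.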
# Columns and labels:
# Experiment in all cases: inhibition of tumour cell growth, NCI panel, 48 h
# [1] = test system: RPMI-8226 leukemia
# [2] = test system: SNB-75 CNS
# [3] = test system: HCT-116 colon
# [4] = test system: SK-MEL-2 melanoma
# [5] = test system: A549 NSCLC
# [6] = test system: HT29 colon
# [7] = test system: HOP-92 NSCLC
# [8] = test system: NCI-H23 lung
# [9] = test system: OVCAR-3 ovarian
# [10] = test system: SF-268 CNS
# [11] = test system: NCI-H460 lung
SMILES,TGI [1],TGI [2],TGI [3],TGI [4],TGI [5],TGI [6],TGI [7],TGI [8],TGI [9],TGI [10],TGI [11],GI50 [2],GI50 [11],GI50 [4],GI50 [6],GI50 [7],GI50 [8],GI50 [9],GI50 [10]
C[C@H]1C(=O)O[C@@H]2CCN3CC=C(COC(=O)[C@](C)(O)[C@@]1(C)O)[C@H]23,> 100 µM,> 100 µM,> 100 µM,> 100 µM,> 100 µM,> 100 µM,> 100 µM,> 100 µM,> 100 µM,> 100 µM,,,,,,,,,
CC(=O)NNc1nc(-c2ccc([N+](=O)[O-])cc2)c(C#N)c(=O)n1C,> 100 µM,54.9 µM,94.2 µM,> 100 µM,> 100 µM,> 100 µM,33.3 µM,> 100 µM,31.4 µM,> 100 µM,> 100 µM,,,,,,,,
CN(C)C(=O)/C=C/c1c[nH]c(=O)[nH]c1=O,> 316 µM,> 500 µM,> 500 µM,> 500 µM,> 500 µM,> 500 µM,> 500 µM,> 500 µM,> 500 µM,> 500 µM,> 500 µM,,,,,,,,
COc1ccc(C2=C3SC=c4ccccc4=C3ON=C2c2ccccc2)cc1,> 100 µM,,> 100 µM,> 100 µM,> 100 µM,> 100 µM,> 100 µM,> 100 µM,> 100 µM,> 100 µM,> 100 µM,,,,,,,,
Cc1cccc2c1Sc1ccccc1C2NC(=O)CCN(C)C (stereo unspecified),> 100 µM,> 100 µM,> 100 µM,,> 100 µM,> 100 µM,,> 100 µM,,> 100 µM,> 100 µM,,,,,,,,
O=C(Nc1ccc([N+](=O)[O-])cc1[N+](=O)[O-])C(=O)C(C(=O)c1ccc2ccccc2c1)C1OC(=O)c2ccccc21 (stereo unspecified),68.6 µM,50.7 µM,32 µM,43.4 µM,61.7 µM,36.4 µM,55.6 µM,26 µM,,43.1 µM,28.9 µM,,,,,,,,
CN(C)CCNC(=O)c1cccc2ccc(-c3ccc(F)cc3)nc12,13.5 µM,19.6 µM,13.3 µM,21.3 µM,17.9 µM,17 µM,18 µM,17.1 µM,33.5 µM,22.2 µM,10.5 µM,,,,,,,,
COc1cc(C2CC(c3cccc(Nc4ccncc4)c3)=NN2c2ccc(Cl)cc2)cc(OC)c1OC (stereo unspecified),,2.85 µM,,3.91 µM,,4.82 µM,2.7 µM,3.28 µM,3.03 µM,3.06 µM,3.13 µM,1.28 µM,1.69 µM,1.89 µM,1.87 µM,1.25 µM,1.67 µM,1.61 µM,1.58 µM
N=C1C(=N)c2ccccc2-c2ccccc21.N=C1C(=N)c2ccccc2-c2ccccc21.N=C1C(=N)c2ccccc2-c2ccccc21.[Cl-].[Ru+2],5.4 µM,4.25 µM,3.2 µM,,> 27.9 µM,> 31.6 µM,3.09 µM,4.93 µM,3.08 µM,3.28 µM,6.29 µM,,,,,1.6 µM,,,
O=P1(c2ccccc2)Nc2ccccc2SSc2ccccc2N1,45.3 µM,39.4 µM,31.4 µM,32.2 µM,46.1 µM,37.1 µM,30.7 µM,32.7 µM,28.3 µM,34 µM,33.8 µM,,,,,,,,
COc1ccc2c(c1)CCCN2CCCCCCCCCCN(CCC(C)C)CCC(C)C,6.18 µM,,,22.8 µM,26.2 µM,18 µM,17 µM,12.7 µM,17.3 µM,25.6 µM,24.3 µM,,,,,,,,
COc1ccc(/C(Cl)=C(\C=O)c2ccc(OC)cc2)cc1,> 100 µM,> 100 µM,> 100 µM,> 100 µM,> 100 µM,> 100 µM,,> 100 µM,> 100 µM,> 100 µM,> 100 µM,,,,,,,,
CCCOC(=O)CNC(=O)OC(C)(C)C,,> 100 µM,> 100 µM,> 100 µM,> 100 µM,> 100 µM,> 100 µM,> 100 µM,> 100 µM,> 100 µM,> 100 µM,,,,,,,,
NCCc1cc(O)c(O)cc1O,39.3 µM,70.6 µM,53.3 µM,71.7 µM,> 100 µM,67.6 µM,59.5 µM,> 69.6 µM,58.4 µM,58.5 µM,80.4 µM,,,,,10 µM,24.2 µM,,
CCOC(=O)c1c2c(n(Cc3ccccc3)c1C)C(=O)C(=O)c1ccccc1-2,0.83 µM,2.69 µM,0.692 µM,,1.35 µM,,3.17 µM,1.07 µM,0.167 µM,1.27 µM,1.5 µM,,,,,,,,
Nc1n[nH]c(=O)c2c1c(I)cn2C1OC(CO)C(O)C1O (stereo unspecified),4.53 µM,2.81 µM,> 100 µM,0.049 µM,> 100 µM,67.8 µM,3.05 µM,1.96 µM,> 100 µM,25.7 µM,14.1 µM,,,,,,,,
